Ten compounds from US12459951B2, “Compounds that interact with RAS superfamily proteins for treatment of cancers, inflammatory diseases, rasopathies, and fibrotic disease” (SHY Therapeutics, LLC, priority 2022, dated 2025) can be followed below.

The test system of test [1] is MiaPaca-2 (expressing KRAS G12C mutant). Put plainly: Proliferation Assay (Cell Viability Assay). To be noted: Homo sapiens, MIA PaCa-2; read-out: Proliferation in MiaPaca-2: IC50. The class given is cell-based. In outline: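 After 2–4 days' exposure at 37 °C, 5% CO2 to a single 10 μM final concentration or a dilution series (IC50), percent proliferation inhibition was derived from CellTiter 96 Aqueous One viability readings. The medium contained 0.3% DMSO and 10% FBS. KRAS G12C MiaPaca-2 cells were plated at 2000–5000/well the day before.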

The test system of test [2] is KRas G12D mutant. As to the kind of experiment: Ras GTP Binding Domain Inhibition Assay (Ras Superfamily Assay). The conditions noted are these: for KRas G12D mutant + SOS: % inh.: with SOS; for KRas G12D mutant: % inh.: without SOS. The method, boiled down:
(§1)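 His-tagged GTPases immobilised on nickel-coated plates, pre-incubated with compound (20 μM single point, or serial dilution for IC50) 3 h at room temperature, with or without 10-30 μg/mL Sos (residues 556-1049) in the final hour. Bound Cy3- or Cy5-GTP (100 nM, 45 min) measured by fluorescence after washing.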

Test [3] has as its system KRas wild type. The description is as above. To be noted: for KRas wild type + SOS: % inh.: with SOS; for KRas wild type: % inh.: without SOS. The method, boiled down:
as §1

Test [4] deals with T1, Rac-1 (Homo sapiens, UniProt P63000).
T1 construct: made in house
The test is described as above. The conditions noted are these: read-out: Rac-1: % inh. The method, boiled down:
as §1

In the case of `CO[C@H]1CC[C@H](Nc2nc(-c3nccn3C)nn3cc(-c4cccnc4)c(-c4ccccc4)c23)C1` (racemic) [Compound 194, rac N-((1S,3S)-3-Methoxycyclopentyl)-2-(1-methyl-1H-imidazol-2-yl)-5-phenyl-6-(pyridin-3-yl)pyrrolo[2,1-f][1,2,4]triazin-4-amine], the IC50 in test [1] is above 1000 nM. In test [2] (at 20 μM), the “KRas G12D mutant + SOS: % inh.” value is “A (A = 1-25% inhibition)” and the “KRas G12D mutant: % inh.” value is given as “A (A = 1-25% inhibition)”. In test [3] (at 20 μM), the “KRas wild type + SOS: % inh.” value is given as 0 (0 = 0% inhibition) and the “KRas wild type: % inh.” value is given as “A (A = 1-25% inhibition)”. In addition, the inhibition at 20 µM in test [4] is 1 to 25%.
Turning to `COc1cccc(-c2cn3nc(-c4nccn4C)nc(N[C@H]4C[C@H](OC)C4)c3c2-c2ccccc2)c1C` [Compound 209, 6-(3-methoxy-2-methylphenyl)-N-((1r,3r)-3-methoxycyclobutyl)-2-(1-methyl-1H-imidazol-2-yl)-5-phenylpyrrolo[2,1-f][1,2,4]triazin-4-amine], the IC50 in test [1] was 150 to 500 nM. In test [2] (at 20 μM), the “KRas G12D mutant + SOS: % inh.” value is on record as “A (A = 1-25% inhibition)” and the “KRas G12D mutant: % inh.” value was “A (A = 1-25% inhibition)”. In test [3] (at 20 μM), the “KRas wild type + SOS: % inh.” value is 0 (0 = 0% inhibition) and the “KRas wild type: % inh.” value is on record as “A (A = 1-25% inhibition)”. Moreover, the inhibition at 20 µM in test [4] was 26 to 49%.
Take `COCCNC(=O)c1c(-c2ccn(C)n2)cn2nc(-c3nccn3C)nc(Nc3cc(OC)ccn3)c12` [Compound 176, N-(2-Methoxyethyl)-4-((4-methoxypyridin-2-yl)amino)-2-(1-methyl-1H-imidazol-2-yl)-6-(1-methyl-1H-pyrazol-3-yl)pyrrolo[2,1-f][1,2,4]triazine-5-carboxamide]: in test [1], the IC50 lay within 510 to 1000 nM. Besides, in test [2] (20 μM compound), the “KRas G12D mutant + SOS: % inh.” value is given as “D (D = 76-100% inhibition)” and the “KRas G12D mutant: % inh.” value is given as “D (D = 76-100% inhibition)”. In test [3] (20 μM compound), the “KRas wild type + SOS: % inh.” value is “D (D = 76-100% inhibition)” and the “KRas wild type: % inh.” value is reported as “D (D = 76-100% inhibition)”. Further, the inhibition at 20 µM in test [4] fell in the range of 76 to 100%.
For the compound `CO[C@H]1C[C@@H](Nc2nc(-c3nccn3C)nn3cc(-c4ccncc4)c(-c4ccccc4)c23)C1` [Compound 198, N-((1s,3s)-3-Methoxycyclobutyl)-2-(1-methyl-1H-imidazol-2-yl)-5-phenyl-6-(pyridin-4-yl)pyrrolo[2,1-f][1,2,4]triazin-4-amine], in test [1], the IC50 is above 1000 nM. In test [2] (at 20 μM), the “KRas G12D mutant + SOS: % inh.” value was “B (B = 26-49% inhibition)” and the “KRas G12D mutant: % inh.” value is on record as “B (B = 26-49% inhibition)”. In test [3] (at 20 μM), the “KRas wild type + SOS: % inh.” value is reported as “B (B = 26-49% inhibition)” and the “KRas wild type: % inh.” value is reported as “A (A = 1-25% inhibition)”. The inhibition at 20 µM in test [4] lay in the range of 26 to 49%.
For the compound `CO[C@H]1C[C@H](Nc2nc(-c3nccn3C)nn3cc(-c4cccc(OCCN)c4)c(-c4ccccc4)c23)C1` [Compound 205, 6-(3-(2-Aminoethoxy)phenyl)-N-((1r,3r)-3-methoxycyclobutyl)-2-(1-methyl-1H-imidazol-2-yl)-5-phenylpyrrolo[2,1-f][1,2,4]triazin-4-amine], in test [1], the IC50 is above 1000 nM. In addition, in test [2] (at 20 μM), the “KRas G12D mutant + SOS: % inh.” value is given as “A (A = 1-25% inhibition)” and the “KRas G12D mutant: % inh.” value was “A (A = 1-25% inhibition)”. In test [3] (at 20 μM), the “KRas wild type + SOS: % inh.” value is on record as “A (A = 1-25% inhibition)” and the “KRas wild type: % inh.” value is listed as “A (A = 1-25% inhibition)”. Further, the inhibition at 20 µM in test [4] lay in the range of 1 to 25%.
With `Cc1c(-c2ccn(C)n2)cn2nc(-c3nccn3C)nc(Nc3ccc(-n4ccnc4C)cn3)c12` [Compound 243, 5-Methyl-N-(5-(2-methyl-1H-imidazol-1-yl)pyridin-2-yl)-2-(1-methyl-1H-imidazol-2-yl)-6-(1-methyl-1H-pyrazol-3-yl)pyrrolo[2,1-f][1,2,4]triazin-4-amine], the IC50 in test [1] is below 150 nM. Moreover, in test [2] (at 20 μM), the “KRas G12D mutant + SOS: % inh.” value is on record as “D (D = 76-100% inhibition)” and the “KRas G12D mutant: % inh.” value is listed as “D (D = 76-100% inhibition)”. Moreover, in test [3] (at 20 μM), the “KRas wild type + SOS: % inh.” value is “D (D = 76-100% inhibition)” and the “KRas wild type: % inh.” value is listed as “D (D = 76-100% inhibition)”. For the same compound, in test [4], the inhibition at 20 µM fell in the range of 76 to 100%.
Regarding `COCCNC(=O)c1c(-c2ccn(C)n2)cn2nc(-c3nccn3C)nc(N[C@H]3CC[C@H](OC)C3)c12` (racemic) [Compound 183, rac 4-(((1S,3S)-3-Methoxycyclo-pentyl)amino)-N-(2-methoxyethyl)-2-(1-methyl-1H-imidazol-2-yl)-6-(1-methyl-1H-pyrazol-3-yl)pyrrolo[2,1-f][1,2,4]triazine-5-carboxamide], in test [1], the IC50 is above 1000 nM. In test [2] (20 μM compound), the “KRas G12D mutant + SOS: % inh.” value is “A (A = 1-25% inhibition)” and the “KRas G12D mutant: % inh.” value was “A (A = 1-25% inhibition)”. For the same compound, in test [3] (20 μM compound), the “KRas wild type + SOS: % inh.” value is recorded as “A (A = 1-25% inhibition)” and the “KRas wild type: % inh.” value is given as 0 (0 = 0% inhibition). Moreover, the inhibition at 20 µM in test [4] fell in the range of 1 to 25%.
As to `CO[C@H]1C[C@H](Nc2nc(-c3nccn3C)nn3cc(-c4cnccc4C)c(-c4ccccc4)c23)C1` [Compound 218, N-((1r,3r)-3-Methoxycyclobutyl)-2-(1-methyl-1H-imidazol-2-yl)-6-(4-methylpyridin-3-yl)-5-phenylpyrrolo[2,1-f][1,2,4]triazin-4-amine], the IC50 in test [1] was above 1000 nM. Besides, in test [2] (at 20 μM), the “KRas G12D mutant + SOS: % inh.” value was “A (A = 1-25% inhibition)” and the “KRas G12D mutant: % inh.” value is listed as “A (A = 1-25% inhibition)”. Moreover, in test [3] (at 20 μM), the “KRas wild type + SOS: % inh.” value was “A (A = 1-25% inhibition)” and the “KRas wild type: % inh.” value is “A (A = 1-25% inhibition)”. The inhibition at 20 µM in test [4] is 1 to 25%.
Take `CO[C@H]1C[C@H](Nc2nc(-c3nccn3C)nn3cc(-c4ccc(CCN)cc4)c(-c4ccccc4)c23)C1.Cl` [Compound 207, 6-(4-(2-Aminoethyl)phenyl)-N-((1r,3r)-3-methoxycyclobutyl)-2-(1-methyl-1H-imidazol-2-yl)-5-phenylpyrrolo[2,1-f][1,2,4]triazin-4-amine hydrochloride salt]: the IC50 in test [1] is above 1000 nM. In addition, in test [2] (at 20 μM), the “KRas G12D mutant + SOS: % inh.” value was “A (A = 1-25% inhibition)” and the “KRas G12D mutant: % inh.” value is “B (B = 26-49% inhibition)”. Moreover, in test [3] (at 20 μM), the “KRas wild type + SOS: % inh.” value is given as “B (B = 26-49% inhibition)” and the “KRas wild type: % inh.” value is reported as “B (B = 26-49% inhibition)”. The inhibition at 20 µM in test [4] was in the range of 1 to 25%.
In the case of `CO[C@H]1CC[C@@H](Nc2nc(-c3nccn3C)nn3cc(-c4ccncc4)c(-c4ccccc4)c23)C1` (racemic) [Compound 200, rac N-((1R,3S)-3-Methoxycyclopentyl)-2-(1-methyl-1H-imidazol-2-yl)-5-phenyl-6-(pyridin-4-yl)pyrrolo[2,1-f][1,2,4]triazin-4-amine], the IC50 in test [1] was above 1000 nM. Besides, in test [2] (at 20 μM), the “KRas G12D mutant + SOS: % inh.” value was “B (B = 26-49% inhibition)” and the “KRas G12D mutant: % inh.” value was “B (B = 26-49% inhibition)”. Moreover, in test [3] (at 20 μM), the “KRas wild type + SOS: % inh.” value is recorded as “B (B = 26-49% inhibition)” and the “KRas wild type: % inh.” value is on record as “B (B = 26-49% inhibition)”. The inhibition at 20 µM in test [4] lay in the range of 26 to 49%.
